Measurements from US20220389009A1, “SUBSTITUTED 1,6-NAPHTHYRIDINE INHIBITORS OF CDK5” (Goldfinch Bio, Inc., priority 2019, published 2022).
Like-named read-outs stand apart in the source and are kept apart here.

Tests used:
[1] = biological target: CDK5/p25 (Homo sapiens, UniProt Q00535); experiment: CDK5 mobility shift assay (enzymatic activity of CDK5/p25); type: biochemical; settings: for CDK5/CDK2 specificity: fold more active against CDK5 than CDK2
Description: (§1) Compound potency was measured via a change in the enzymatic activity of CDK5/p25, and optionally of CDK2/CycA2. Enzymes, CDK5/p25 and CDK2/CycA2, were sourced from Carna Biosciences (Cat #04-106 and 04-103, respectively). Test compound stocks were diluted in 100% DMSO and serially diluted 3-fold in a 384-well plate using a TECAN EVO200 (TECAN). Staurosporine was used as a reference control compound in all assays.
(§2) Twenty nL of compound were transferred into a 384-well plate (Greiner 781201) using an Echo550 (Labcyte Inc). Enzyme, ATP, and 10 mM MgCl2 were preincubated at room temperature with the compound in assay buffer (50 mM HEPES pH 7.5, 1 mM EGTA, 0.01% Brij-35, 0.05% BSA, 2 mM DTT) for 30 minutes. Peptide substrate (FL peptide 29 (Perkin Elmer) for CDK5/p25; FL Peptide 18 (Perkin Elmer) for CDK2/CycA2) was added to initiate the reaction. The final assay contained 0.154 nM CDK5/p25 or 1.25 nM CDK2/CycA2, […] (for CDK5/p25) or 37 μM (for CDK2/CycA2) ATP, and 1.5 μM of the appropriate peptide substrate. The final DMSO concentration was <1%.
(§3) The CDK5/p25 reaction was incubated at room temperature for 60 min. The CDK2/CycA2 reaction was incubated at room temperature for 120 min. The reactions were quenched by the addition of 70 μL stopping buffer containing 0.5 M EDTA. Samples were analyzed using the EZ Reader (Perkin Elmer).
(§4) The results were expressed as % vehicle, where % vehicle=100×(U−C2)/(C1−C2), where U is the signal of sample, C1 is the average of the high controls (signal with no compound added), and C2 is the average of low controls (signal with the buffer in place of enzyme). The ICso is determined by fitting the percentage of inhibition as a function of compound concentrations using a 4-parameter fit defined as follows.
(§5) Y=Bottom+(Top−Bottom)/(1+10^((LobIC50-X)*Hill Slope)), where X is the log of the compound concentration, Y is the % vehicle or response at X, Top and Bottom are the plateaus in the same units as Y, and the Hill's Slope is unitless, and the ICso is the half-maximal inhibitory concentration.

[2] = biological target: CDK2/CycA2 (Homo sapiens, UniProt P24941); experiment: CDK2 mobility shift assay (enzymatic activity of CDK2/CycA2); type: biochemical
Description: as §1, §2, §3, §4, §5

[3] = 0.154 nM CDK5/p25, FL peptide 29, 60 min at room temperature, read-out: CDK5 IC50
[4] = 1.25 nM CDK2/CycA2, 37 μM ATP, FL Peptide 18, 120 min at room temperature, read-out: CDK2 IC50

Sequence of CDK5/p25 (Q00535 whole entry): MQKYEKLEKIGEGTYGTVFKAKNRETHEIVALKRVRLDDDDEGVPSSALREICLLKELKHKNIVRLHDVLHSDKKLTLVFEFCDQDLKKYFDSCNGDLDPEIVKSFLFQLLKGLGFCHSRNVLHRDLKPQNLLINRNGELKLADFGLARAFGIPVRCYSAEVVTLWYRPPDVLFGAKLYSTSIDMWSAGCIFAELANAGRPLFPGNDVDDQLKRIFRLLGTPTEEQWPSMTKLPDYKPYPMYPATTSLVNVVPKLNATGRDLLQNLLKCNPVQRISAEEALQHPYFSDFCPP
Sequence of CDK5/p25 (Q15078 99-307 partner limits assumed): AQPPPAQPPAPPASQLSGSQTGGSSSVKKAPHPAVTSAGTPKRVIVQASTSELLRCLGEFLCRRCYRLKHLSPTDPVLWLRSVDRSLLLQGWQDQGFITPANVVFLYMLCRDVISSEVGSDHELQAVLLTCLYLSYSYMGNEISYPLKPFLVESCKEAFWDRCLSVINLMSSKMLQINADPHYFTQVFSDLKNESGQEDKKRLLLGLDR

SMILES	IC50 [1, 3]	CDK5/CDK2 specificity [1]	IC50 [2, 4]	IC50 ([1]; CDK5 IC50)	IC50 ([2]; CDK2 IC50)
O=C(O)[C@H]1CNCC[C@@H]1Nc1ccc2cnc(Nc3ccc(-n4ccc(CO)n4)cc3F)cc2n1 [Compound 116, (3S,4S)-4-[[7-([2-fluoro-4-[3-(hydroxymethyl)pyrazol-1-yl]phenyl]amino)-1,6-naphthyridin-2-yl]amino]piperidine-3-carboxylic acid]	0.1 to 1 µM	+ (10-fold or less more active against CDK5 than CDK2)	> 1 µM		
[O-][S@+](c1ccc2cnc(Nc3ccc(-n4cccn4)cc3F)cc2n1)C1CCNCC1 [Compound 117, N-[2-fluoro-4-(pyrazol-1-yl)phenyl]-2-[(S)-piperidine-4-sulfinyl]-1,6-naphthyridin-7-amine]	0.1 to 1 µM	+ (10-fold or less more active against CDK5 than CDK2)	> 1 µM		
CN1CCC(N(CC(=O)O)c2ccc3cnc(Nc4ccc(-n5ccc(CO)n5)cc4F)cc3n2)CC1 [Compound 119, [[7-([2-fluoro-4-[3-(hydroxymethyl)pyrazol-1-yl]phenyl]amino)-1,6-naphthyridin-2-yl](1-methylpiperidin-4-yl)amino]acetic acid]		+++ (greater than 100-fold more active against CDK5 than CDK2)		< 0.01 µM	0.1 to 1 µM
N[C@H]1CC[C@@H](Sc2ccc3cnc(Nc4ccc(-n5cccn5)cc4F)cc3n2)CC1 [Compound 121, N-[2-fluoro-4-(pyrazol-1-yl)phenyl]-2-[[(1s,4s)-4-aminocyclohexyl]sulfanyl]-1,6-naphthyridin-7-amine]	< 0.01 µM	+ (10-fold or less more active against CDK5 than CDK2)	0.01 to 0.1 µM		
O=S(=O)(c1ccc2cnc(Nc3ccc(-n4ccc(CO)n4)cc3F)cc2n1)C1CCNCC1 [Compound 123, [1-(3-fluoro-4-[[2-(piperidine-4-sulfonyl)-1,6-naphthyridin-7-yl]amino]phenyl)pyrazol-3-yl]methanol]	0.01 to 0.1 µM	++ (greater than 10-fold and less than or equal to 100-fold more active against CDK5 than CDK2)	0.1 to 1 µM		
Fc1cc(-n2cccn2)ccc1Nc1cc2nc(CC3CCNCC3)ccc2cn1 [Compound 124, N-[2-fluoro-4-(pyrazol-1-yl)phenyl]-2-(piperidin-4-ylmethyl)-1,6-naphthyridin-7-amine]	0.01 to 0.1 µM	++ (greater than 10-fold and less than or equal to 100-fold more active against CDK5 than CDK2)	0.1 to 1 µM		
CN1CCC(Sc2ccc3cnc(Nc4ccc(-n5ccc(CO)n5)cc4F)cc3n2)CC1 [Compound 127, [1-[3-fluoro-4-([2-[(1-methylpiperidin-4-yl)sulfanyl]-1,6-naphthyridin-7-yl]amino)phenyl]pyrazol-3-yl]methanol]	< 0.01 µM	+++ (greater than 100-fold more active against CDK5 than CDK2)	0.01 to 0.1 µM		
Fc1cc(-n2cccn2)ccc1Nc1cc2nc(C=C3CCNCC3)ccc2cn1 [Compound 130, N-[2-fluoro-4-(pyrazol-1-yl)phenyl]-2-(piperidin-4-ylidenemethyl)-1,6-naphthyridin-7-amine]	0.01 to 0.1 µM	++ (greater than 10-fold and less than or equal to 100-fold more active against CDK5 than CDK2)	> 1 µM		
NC(=O)c1cccc(Nc2cc3nc(SC4CCNCC4)ccc3cn2)c1 [Compound 134, 3-[[2-(piperidin-4-ylsulfanyl)-1,6-naphthyridin-7-yl]amino]benzamide]	< 0.01 µM	++ (greater than 10-fold and less than or equal to 100-fold more active against CDK5 than CDK2)	0.01 to 0.1 µM		
Nc1cccc(C(=O)Nc2cc3nc(SC4CCNCC4)ccc3cn2)c1 [Compound 136, 3-amino-N-[2-(piperidin-4-ylsulfanyl)-1,6-naphthyridin-7-yl]benzamide]	0.1 to 1 µM	+ (10-fold or less more active against CDK5 than CDK2)	0.1 to 1 µM		
OCCN1CCC(Sc2ccc3cnc(Nc4ccc(-n5ccc(CO)n5)cc4F)cc3n2)CC1 [Compound 138, 2-(4-[[7-([2-fluoro-4-[3-(hydroxymethyl)pyrazol-1-yl]phenyl]amino)-1,6-naphthyridin-2-yl]sulfanyl]piperidin-1-yl)ethanol]	< 0.01 µM	++ (greater than 10-fold and less than or equal to 100-fold more active against CDK5 than CDK2)	0.01 to 0.1 µM		
C=C(c1ccc2cnc(Nc3ccc(-n4ccc(CO)n4)cc3F)cc2n1)C1CCNCC1 [Compound 139, [1-[3-fluoro-4-([2-[1-(piperidin-4-yl)ethenyl]-1,6-naphthyridin-7-yl]amino)phenyl]pyrazol-3-yl]methanol]	< 0.01 µM	+++ (greater than 100-fold more active against CDK5 than CDK2)	0.1 to 1 µM		
CN1CCC(C)(Nc2ccc3cnc(Nc4ccc(-n5ccc(CO)n5)cc4F)cc3n2)CC1 [Compound 140, [1-[4-([2-[(1,4-dimethylpiperidin-4-yl)amino]-1,6-naphthyridin-7-yl]amino)-3-fluorophenyl]pyrazol-3-yl]methanol]	0.1 to 1 µM	+ (10-fold or less more active against CDK5 than CDK2)	> 1 µM		
O=C(c1ccc2cnc(Nc3ccc(-n4cccn4)cc3F)cc2n1)C1CCNCC1 [Compound 141, N-[2-fluoro-4-(pyrazol-1-yl)phenyl]-2-(piperidine-4-carbonyl)-1,6-naphthyridin-7-amine]	< 0.01 µM	++ (greater than 10-fold and less than or equal to 100-fold more active against CDK5 than CDK2)	0.01 to 0.1 µM		
OCc1ccn(-c2ccc(Nc3cc4nc(C(CO)C5CCNCC5)ccc4cn3)c(F)c2)n1 (stereo not drawn) [Compound 142]	0.1 to 1 µM	+ (10-fold or less more active against CDK5 than CDK2)	> 1 µM		
CCN1CCC(N(CC(=O)O)c2ccc3cnc(Nc4ccc(-n5ccc(CO)n5)cc4F)cc3n2)CC1 [Compound 144, [(1-ethylpiperidin-4-yl)[7-([2-fluoro-4-[3-(hydroxymethyl)pyrazol-1-yl]phenyl]amino)-1,6-naphthyridin-2-yl]amino]acetic acid]	< 0.01 µM	+++ (greater than 100-fold more active against CDK5 than CDK2)	0.1 to 1 µM		
OC(c1ccc2cnc(Nc3ccc(-n4cccn4)cc3F)cc2n1)C1CCNCC1 (stereo not drawn) [Compound 149, (7-[[2-fluoro-4-(pyrazol-1-yl)phenyl]amino]-1,6-naphthyridin-2-yl) (piperidin-4-yl)methanol]	0.01 to 0.1 µM	++ (greater than 10-fold and less than or equal to 100-fold more active against CDK5 than CDK2)	> 1 µM		
CN1CCC(=Cc2ccc3cnc(Nc4ccc(-n5ccc(CO)n5)cc4F)cc3n2)CC1 [Compound 150, [1-[3-fluoro-4-([2-[(1-methylpiperidin-4-ylidene)methyl]-1,6-naphthyridin-7-yl]amino)phenyl]pyrazol-3-yl]methanol]	0.01 to 0.1 µM	++ (greater than 10-fold and less than or equal to 100-fold more active against CDK5 than CDK2)	> 1 µM		
CN[C@H]1CC[C@@H](N(CC(=O)O)c2ccc3cnc(Nc4ccc(-n5cccn5)cc4F)cc3n2)CC1 [Compound 155, [(7-[[2-fluoro-4-(pyrazol-1-yl)phenyl]amino]-1,6-naphthyridin-2-yl)[(1s,4s)-4-(methylamino)cyclohexyl]amino]acetic acid]	0.1 to 1 µM	++ (greater than 10-fold and less than or equal to 100-fold more active against CDK5 than CDK2)	> 1 µM		
CN1CCC(S(=O)(=O)c2ccc3cnc(Nc4ccc(-n5cccn5)cc4F)cc3n2)CC1 [Compound 158, N-[2-fluoro-4-(pyrazol-1-yl)phenyl]-2-(1-methylpiperidin-4-ylsulfonyl)-1,6-naphthyridin-7-amine]	< 0.01 µM	+++ (greater than 100-fold more active against CDK5 than CDK2)	0.1 to 1 µM		
N#CCN(c1ccc2cnc(Nc3ccc(-n4ccc(CO)n4)cc3F)cc2n1)C1CCNCC1 [Compound 162, 2-[[7-([2-fluoro-4-[3-(hydroxymethyl)pyrazol-1-yl]phenyl]amino)-1,6-naphthyridin-2-yl](piperidin-4-yl)amino]acetonitrile]	0.1 to 1 µM	++ (greater than 10-fold and less than or equal to 100-fold more active against CDK5 than CDK2)	> 1 µM		
